By inhibition is commonly meant the relative decrease from the control value, in per cent.

inhibition, viability and Activity data for one molecule are collected here from ChEMBL document CHEMBL5346877, “A-ring-fused pyrazoles of dihydrotestosterone targeting prostate cancer cells via the downregulation of the androgen receptor” (Eur J Med Chem, 2023).

Assay [1] relates to LAPC4. Put plainly: Inhibition of colony formation in human LAPC4 cells at 10 uM incubated for 10 days by crystal violet staining based assay. Format: functional. Particulars: LAPC4, 240 h, time 10 day.
Assay [2] concerns LAPC4. Put plainly: Cytotoxicity against human LAPC4 cells assessed as cell viability at 20 uM incubated for 72 hrs by resazurin dye based microplate reader assay. The conditions noted are these: read-out: Activity. In kind it is functional. A general note: Alamar Blue is a resazurin reagent that responds to reducing activity.
The subject of another assay is CWR22R. Put plainly: Cytotoxicity against human 22Rv1 cells assessed as cell viability at 20 uM incubated for 72 hrs by resazurin dye based microplate reader assay. In kind it is functional. The conditions noted are these: read-out: Activity.
The test system of a further assay is DU-145. In words: Cytotoxicity against human DU-145 cells assessed as cell viability at 20 uM incubated for 72 hrs by resazurin dye based microplate reader assay. Format: functional. The conditions noted are these: read-out: Activity.
The test system of assay [3] is LAPC4. Put plainly: Inhibition of colony formation in human LAPC4 cells at 5 uM incubated for 10 days by crystal violet staining based assay. The conditions noted are these: time 10.0 day. Format: functional, cell-based.
In assay [4] the target is T1, Androgen receptor (Homo sapiens) (UniProt P10275).
T1 sequence (whole entry): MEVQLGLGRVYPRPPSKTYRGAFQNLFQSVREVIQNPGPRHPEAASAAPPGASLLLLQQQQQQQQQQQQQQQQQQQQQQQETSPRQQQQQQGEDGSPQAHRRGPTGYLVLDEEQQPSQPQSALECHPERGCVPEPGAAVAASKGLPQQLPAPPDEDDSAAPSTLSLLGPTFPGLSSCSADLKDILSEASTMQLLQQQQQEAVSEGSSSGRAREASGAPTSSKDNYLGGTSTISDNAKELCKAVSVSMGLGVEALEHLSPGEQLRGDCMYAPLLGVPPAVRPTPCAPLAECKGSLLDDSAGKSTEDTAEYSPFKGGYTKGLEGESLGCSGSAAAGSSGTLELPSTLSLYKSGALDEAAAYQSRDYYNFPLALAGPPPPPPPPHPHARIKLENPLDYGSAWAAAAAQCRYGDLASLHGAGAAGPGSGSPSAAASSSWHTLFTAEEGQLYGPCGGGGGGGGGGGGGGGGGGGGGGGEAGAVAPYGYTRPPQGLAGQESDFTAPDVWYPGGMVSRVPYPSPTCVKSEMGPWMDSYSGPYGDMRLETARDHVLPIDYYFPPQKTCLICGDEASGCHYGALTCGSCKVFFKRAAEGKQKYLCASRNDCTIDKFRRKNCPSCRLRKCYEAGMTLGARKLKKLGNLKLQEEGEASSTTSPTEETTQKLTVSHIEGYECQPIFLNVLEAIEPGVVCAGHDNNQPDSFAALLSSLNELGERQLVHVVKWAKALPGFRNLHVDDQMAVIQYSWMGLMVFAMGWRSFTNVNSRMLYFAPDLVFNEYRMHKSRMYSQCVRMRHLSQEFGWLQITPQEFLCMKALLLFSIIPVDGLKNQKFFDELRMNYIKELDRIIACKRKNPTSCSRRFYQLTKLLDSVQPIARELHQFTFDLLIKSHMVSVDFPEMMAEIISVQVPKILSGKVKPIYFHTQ
In words: Antagonist activity at AR in human LNCaP-abl cells assessed as reduction in phosphorylation at S81 at 10 uM incubated for 24 hrs in presence of R1881 by Western blotting analysis. Format: cell-based. The conditions noted are these: filed as antagonist. For orientation: In western blotting, separated proteins are transferred to a membrane and probed.

Assay [5] has as its target T1, Androgen receptor (Homo sapiens). Put plainly: Antagonist activity at AR in human LNCaP-abl cells assessed as reduction in PSA expression at 10 uM incubated for 24 hrs in presence of R1881 by Western blotting analysis. Format: cell-based. Particulars: filed as antagonist.

The source made the active and inactive calls. The calls are words filed in the database; no cut-off is given here.

The molecule `Cc1c2c(nn1-c1ccc(C#N)cc1)C[C@@H]1CC[C@@H]3[C@H](CC[C@]4(C)C(=O)CC[C@@H]34)[C@@]1(C)C2` yielded an inhibition at 10 µM with LAPC4 [1] of 29%. Besides, the viability at 20 µM with LAPC4 [2] was 78%; in the assay with CWR22R, 87%; in the assay on DU-145, at least 100%. Moreover, the inhibition entry in the assay with LAPC4 [3] was “Active”. For the same molecule, the outcome in assay [4] and in assay [5] was Active.
